Source: ChEMBL document CHEMBL4507319 (2021)

Legend:
[1] = biological target: T1, Muscle, skeletal receptor tyrosine-protein kinase (Homo sapiens) (UniProt O15146); settings: Compound concentration 1000.0 nM
T1 sequence (whole entry): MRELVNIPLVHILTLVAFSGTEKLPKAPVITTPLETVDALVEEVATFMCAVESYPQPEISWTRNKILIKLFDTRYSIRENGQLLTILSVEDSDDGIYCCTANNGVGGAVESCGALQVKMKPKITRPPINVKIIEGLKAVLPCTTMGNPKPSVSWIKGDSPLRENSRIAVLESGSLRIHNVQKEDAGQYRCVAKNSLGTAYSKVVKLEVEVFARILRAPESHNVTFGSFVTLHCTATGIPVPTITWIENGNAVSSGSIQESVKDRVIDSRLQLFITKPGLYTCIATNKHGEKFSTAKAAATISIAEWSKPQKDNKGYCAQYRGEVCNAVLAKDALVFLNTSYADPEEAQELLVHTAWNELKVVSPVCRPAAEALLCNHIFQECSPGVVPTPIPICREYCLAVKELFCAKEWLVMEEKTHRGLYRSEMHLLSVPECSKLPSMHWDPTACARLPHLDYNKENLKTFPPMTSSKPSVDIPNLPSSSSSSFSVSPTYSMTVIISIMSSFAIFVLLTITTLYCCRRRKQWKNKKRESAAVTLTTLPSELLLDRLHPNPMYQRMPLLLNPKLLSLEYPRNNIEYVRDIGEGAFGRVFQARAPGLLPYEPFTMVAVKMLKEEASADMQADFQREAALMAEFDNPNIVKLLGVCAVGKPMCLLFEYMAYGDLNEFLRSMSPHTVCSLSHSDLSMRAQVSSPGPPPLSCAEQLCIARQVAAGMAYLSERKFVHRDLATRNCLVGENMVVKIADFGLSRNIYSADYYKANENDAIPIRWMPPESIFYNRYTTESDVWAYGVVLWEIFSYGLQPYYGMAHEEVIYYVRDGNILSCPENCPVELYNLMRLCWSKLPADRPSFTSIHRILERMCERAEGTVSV

[2] = biological target: T2, Serine/threonine-protein kinase ULK3 (Homo sapiens) (UniProt Q6PHR2); settings: Compound concentration 1000.0 nM
T2 sequence (whole entry): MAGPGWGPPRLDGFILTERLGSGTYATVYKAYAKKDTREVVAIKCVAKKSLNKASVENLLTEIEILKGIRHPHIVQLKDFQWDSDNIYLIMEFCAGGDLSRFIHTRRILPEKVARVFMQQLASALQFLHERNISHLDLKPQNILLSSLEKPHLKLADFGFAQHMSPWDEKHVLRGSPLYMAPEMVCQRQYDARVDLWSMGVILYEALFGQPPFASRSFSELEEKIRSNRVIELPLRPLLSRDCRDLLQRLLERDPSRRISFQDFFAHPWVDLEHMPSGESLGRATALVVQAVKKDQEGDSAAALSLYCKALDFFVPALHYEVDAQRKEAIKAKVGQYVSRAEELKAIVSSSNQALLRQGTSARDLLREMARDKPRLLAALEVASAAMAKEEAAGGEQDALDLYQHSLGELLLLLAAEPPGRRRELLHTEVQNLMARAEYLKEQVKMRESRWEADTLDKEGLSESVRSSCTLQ

[3] = biological target: T3, Myotonin-protein kinase (Homo sapiens) (UniProt Q09013); settings: Compound concentration 1000.0 nM
T3 sequence (whole entry): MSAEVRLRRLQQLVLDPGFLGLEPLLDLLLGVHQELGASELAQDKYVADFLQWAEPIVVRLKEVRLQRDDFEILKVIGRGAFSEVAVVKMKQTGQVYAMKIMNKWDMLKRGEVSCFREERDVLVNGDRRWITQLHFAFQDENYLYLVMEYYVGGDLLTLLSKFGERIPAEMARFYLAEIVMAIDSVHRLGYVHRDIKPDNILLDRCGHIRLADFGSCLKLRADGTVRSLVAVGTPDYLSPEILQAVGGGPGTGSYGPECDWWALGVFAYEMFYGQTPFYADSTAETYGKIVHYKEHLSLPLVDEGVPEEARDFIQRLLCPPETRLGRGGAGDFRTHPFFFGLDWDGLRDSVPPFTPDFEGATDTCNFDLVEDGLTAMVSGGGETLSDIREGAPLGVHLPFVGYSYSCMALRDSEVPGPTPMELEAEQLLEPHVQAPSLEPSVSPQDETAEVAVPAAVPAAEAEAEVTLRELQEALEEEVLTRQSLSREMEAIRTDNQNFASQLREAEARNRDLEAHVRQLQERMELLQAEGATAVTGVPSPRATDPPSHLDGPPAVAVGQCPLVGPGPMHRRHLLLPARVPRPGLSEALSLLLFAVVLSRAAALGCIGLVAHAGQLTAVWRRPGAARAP

[4] = biological target: Vascular endothelial growth factor receptor 3 (Homo sapiens) (UniProt P35916); settings: Compound concentration 1000.0 nM
Sequence of Vascular endothelial growth factor receptor 3 (Homo sapiens) (P35916 whole entry): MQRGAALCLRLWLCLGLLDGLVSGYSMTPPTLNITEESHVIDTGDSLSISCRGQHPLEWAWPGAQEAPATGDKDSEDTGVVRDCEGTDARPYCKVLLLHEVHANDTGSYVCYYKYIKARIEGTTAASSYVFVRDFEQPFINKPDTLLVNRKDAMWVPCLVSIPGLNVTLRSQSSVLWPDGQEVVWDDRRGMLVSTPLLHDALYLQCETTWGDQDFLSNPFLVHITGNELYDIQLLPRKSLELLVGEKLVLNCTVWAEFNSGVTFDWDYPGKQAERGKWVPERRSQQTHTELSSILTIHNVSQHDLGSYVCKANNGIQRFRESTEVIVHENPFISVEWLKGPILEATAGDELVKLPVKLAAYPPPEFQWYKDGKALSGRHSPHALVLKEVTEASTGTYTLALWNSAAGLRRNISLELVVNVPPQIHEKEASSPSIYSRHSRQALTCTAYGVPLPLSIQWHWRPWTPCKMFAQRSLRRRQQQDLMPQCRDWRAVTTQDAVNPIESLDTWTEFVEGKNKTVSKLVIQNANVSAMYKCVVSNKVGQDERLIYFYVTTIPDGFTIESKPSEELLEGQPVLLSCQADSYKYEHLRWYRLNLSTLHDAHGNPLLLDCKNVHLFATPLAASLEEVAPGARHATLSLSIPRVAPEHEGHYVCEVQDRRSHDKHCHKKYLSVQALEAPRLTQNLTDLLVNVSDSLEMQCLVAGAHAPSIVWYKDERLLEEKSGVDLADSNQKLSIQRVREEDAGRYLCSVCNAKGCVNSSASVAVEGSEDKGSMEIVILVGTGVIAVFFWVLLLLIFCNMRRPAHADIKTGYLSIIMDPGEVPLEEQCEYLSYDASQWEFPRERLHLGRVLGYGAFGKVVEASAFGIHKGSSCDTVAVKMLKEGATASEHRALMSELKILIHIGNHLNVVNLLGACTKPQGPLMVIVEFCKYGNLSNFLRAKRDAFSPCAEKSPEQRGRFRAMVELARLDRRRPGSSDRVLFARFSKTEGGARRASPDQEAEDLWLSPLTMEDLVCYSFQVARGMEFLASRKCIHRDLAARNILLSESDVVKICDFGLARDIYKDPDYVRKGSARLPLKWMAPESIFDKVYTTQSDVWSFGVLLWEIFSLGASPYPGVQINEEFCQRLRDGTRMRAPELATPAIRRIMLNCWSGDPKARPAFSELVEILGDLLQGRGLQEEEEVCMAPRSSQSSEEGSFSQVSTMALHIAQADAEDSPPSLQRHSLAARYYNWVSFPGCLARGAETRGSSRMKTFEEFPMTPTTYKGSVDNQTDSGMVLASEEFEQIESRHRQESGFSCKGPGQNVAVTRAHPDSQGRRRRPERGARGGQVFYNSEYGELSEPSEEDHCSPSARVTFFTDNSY

[5] = biological target: T4, Mitogen-activated protein kinase 13 (Homo sapiens) (UniProt O15264); settings: Compound concentration 1000.0 nM
T4 sequence (whole entry): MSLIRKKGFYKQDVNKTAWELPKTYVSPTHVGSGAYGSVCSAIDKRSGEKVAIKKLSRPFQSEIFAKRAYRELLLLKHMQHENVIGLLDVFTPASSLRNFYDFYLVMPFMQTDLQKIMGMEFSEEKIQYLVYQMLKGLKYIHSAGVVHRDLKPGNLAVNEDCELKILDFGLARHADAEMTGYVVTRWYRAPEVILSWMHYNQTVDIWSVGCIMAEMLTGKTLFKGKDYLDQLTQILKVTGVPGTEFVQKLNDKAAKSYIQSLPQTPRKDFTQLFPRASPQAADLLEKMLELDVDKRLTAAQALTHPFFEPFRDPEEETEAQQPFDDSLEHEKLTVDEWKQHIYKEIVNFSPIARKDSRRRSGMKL

[6] = biological target: Cyclin-dependent kinase 14 (Homo sapiens) (UniProt O94921); settings: Compound concentration 1000.0 nM
Sequence of Cyclin-dependent kinase 14 (Homo sapiens) (O94921 whole entry): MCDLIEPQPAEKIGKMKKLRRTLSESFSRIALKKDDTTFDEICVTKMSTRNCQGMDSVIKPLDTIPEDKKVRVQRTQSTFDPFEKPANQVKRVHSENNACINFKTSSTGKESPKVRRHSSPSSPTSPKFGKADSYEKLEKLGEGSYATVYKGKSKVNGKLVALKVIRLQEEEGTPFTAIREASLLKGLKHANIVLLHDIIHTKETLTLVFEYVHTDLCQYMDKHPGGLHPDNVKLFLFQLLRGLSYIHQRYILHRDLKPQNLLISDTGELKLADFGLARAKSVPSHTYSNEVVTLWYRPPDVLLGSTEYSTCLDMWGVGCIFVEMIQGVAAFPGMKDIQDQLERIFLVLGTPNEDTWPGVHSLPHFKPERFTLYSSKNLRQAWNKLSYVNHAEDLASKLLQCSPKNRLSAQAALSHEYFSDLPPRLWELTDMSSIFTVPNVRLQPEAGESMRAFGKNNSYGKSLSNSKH

[7] = biological target: Non-receptor tyrosine-protein kinase TYK2 (Homo sapiens) (UniProt P29597); settings: Compound concentration 1000.0 nM
[8] = biological target: Tyrosine-protein kinase Fgr (Homo sapiens) (UniProt P09769); settings: Compound concentration 1000.0 nM
Sequence of Tyrosine-protein kinase Fgr (Homo sapiens) (P09769 2-529 limits assumed): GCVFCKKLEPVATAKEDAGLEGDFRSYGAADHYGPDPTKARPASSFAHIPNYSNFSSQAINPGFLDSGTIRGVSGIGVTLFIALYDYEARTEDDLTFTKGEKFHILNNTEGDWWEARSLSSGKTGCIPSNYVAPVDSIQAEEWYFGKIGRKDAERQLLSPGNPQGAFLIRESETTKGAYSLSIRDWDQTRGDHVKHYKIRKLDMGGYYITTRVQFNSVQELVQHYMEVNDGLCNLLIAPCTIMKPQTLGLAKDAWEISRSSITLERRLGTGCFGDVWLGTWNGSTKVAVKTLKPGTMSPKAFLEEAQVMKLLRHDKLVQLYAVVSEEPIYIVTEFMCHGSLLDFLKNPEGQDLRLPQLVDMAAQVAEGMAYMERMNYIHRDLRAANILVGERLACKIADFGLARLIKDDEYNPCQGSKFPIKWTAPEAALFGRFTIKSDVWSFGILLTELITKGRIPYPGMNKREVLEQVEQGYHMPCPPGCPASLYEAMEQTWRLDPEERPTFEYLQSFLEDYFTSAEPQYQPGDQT

[9] = biological target: RAC-gamma serine/threonine-protein kinase (Homo sapiens) (UniProt Q9Y243); settings: Compound concentration 1000.0 nM
[10] = biological target: Mitogen-activated protein kinase kinase kinase 13 (Homo sapiens) (UniProt O43283); settings: Compound concentration 1000.0 nM
[11] = biological target: Homeodomain-interacting protein kinase 3 (Homo sapiens) (UniProt Q9H422); settings: Compound concentration 1000.0 nM
Sequence of Homeodomain-interacting protein kinase 3 (Homo sapiens) (Q9H422 whole entry, looked up): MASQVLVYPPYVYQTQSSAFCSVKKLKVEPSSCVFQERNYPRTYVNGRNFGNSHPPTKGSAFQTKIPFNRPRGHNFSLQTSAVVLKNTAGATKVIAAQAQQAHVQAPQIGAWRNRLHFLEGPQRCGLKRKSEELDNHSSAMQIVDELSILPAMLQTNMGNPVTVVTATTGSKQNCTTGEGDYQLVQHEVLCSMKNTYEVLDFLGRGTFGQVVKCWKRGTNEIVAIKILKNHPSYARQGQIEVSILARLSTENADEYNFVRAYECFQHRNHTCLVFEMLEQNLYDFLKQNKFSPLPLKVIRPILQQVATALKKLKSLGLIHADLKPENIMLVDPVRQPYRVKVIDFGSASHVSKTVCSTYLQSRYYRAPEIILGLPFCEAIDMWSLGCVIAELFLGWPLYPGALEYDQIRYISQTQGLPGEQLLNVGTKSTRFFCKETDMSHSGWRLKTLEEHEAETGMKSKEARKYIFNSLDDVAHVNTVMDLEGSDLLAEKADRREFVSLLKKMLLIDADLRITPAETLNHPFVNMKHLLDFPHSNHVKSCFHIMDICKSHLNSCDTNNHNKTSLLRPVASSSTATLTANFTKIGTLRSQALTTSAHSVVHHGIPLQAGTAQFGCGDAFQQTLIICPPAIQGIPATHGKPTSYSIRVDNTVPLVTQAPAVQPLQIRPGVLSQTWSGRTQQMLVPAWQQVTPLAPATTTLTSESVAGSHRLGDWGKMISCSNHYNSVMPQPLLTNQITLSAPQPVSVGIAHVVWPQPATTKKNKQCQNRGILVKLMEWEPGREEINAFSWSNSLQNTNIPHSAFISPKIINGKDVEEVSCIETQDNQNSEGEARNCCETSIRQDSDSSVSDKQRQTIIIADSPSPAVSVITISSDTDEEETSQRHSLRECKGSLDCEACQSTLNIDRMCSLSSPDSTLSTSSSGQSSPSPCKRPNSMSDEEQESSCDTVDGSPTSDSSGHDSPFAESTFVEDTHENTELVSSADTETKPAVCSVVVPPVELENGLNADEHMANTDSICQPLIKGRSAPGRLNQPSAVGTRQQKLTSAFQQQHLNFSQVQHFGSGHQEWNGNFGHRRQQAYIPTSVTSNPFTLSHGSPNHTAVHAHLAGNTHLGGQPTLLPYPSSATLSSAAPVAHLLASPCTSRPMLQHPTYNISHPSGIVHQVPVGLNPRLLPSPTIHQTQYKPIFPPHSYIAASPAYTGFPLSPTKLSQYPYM

[12] = biological target: 5-hydroxytryptamine receptor 1E (Homo sapiens) (UniProt P28566); settings: Compound concentration 10.0 uM
Sequence of 5-hydroxytryptamine receptor 1E (Homo sapiens) (P28566 whole entry): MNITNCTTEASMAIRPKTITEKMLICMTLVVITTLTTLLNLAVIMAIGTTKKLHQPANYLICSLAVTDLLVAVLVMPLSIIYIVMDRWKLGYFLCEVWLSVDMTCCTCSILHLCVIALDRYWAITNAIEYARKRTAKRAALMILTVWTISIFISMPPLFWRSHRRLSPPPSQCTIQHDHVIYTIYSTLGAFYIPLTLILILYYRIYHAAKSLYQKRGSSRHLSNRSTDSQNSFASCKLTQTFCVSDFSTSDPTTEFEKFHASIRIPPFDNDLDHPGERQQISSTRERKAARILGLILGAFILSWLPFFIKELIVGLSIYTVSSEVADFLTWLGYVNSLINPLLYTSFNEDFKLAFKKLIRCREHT

[13] = biological target: Activin receptor type-2B (Homo sapiens) (UniProt Q13705); settings: Compound concentration 1000.0 nM
Sequence of Activin receptor type-2B (Homo sapiens) (Q13705 whole entry): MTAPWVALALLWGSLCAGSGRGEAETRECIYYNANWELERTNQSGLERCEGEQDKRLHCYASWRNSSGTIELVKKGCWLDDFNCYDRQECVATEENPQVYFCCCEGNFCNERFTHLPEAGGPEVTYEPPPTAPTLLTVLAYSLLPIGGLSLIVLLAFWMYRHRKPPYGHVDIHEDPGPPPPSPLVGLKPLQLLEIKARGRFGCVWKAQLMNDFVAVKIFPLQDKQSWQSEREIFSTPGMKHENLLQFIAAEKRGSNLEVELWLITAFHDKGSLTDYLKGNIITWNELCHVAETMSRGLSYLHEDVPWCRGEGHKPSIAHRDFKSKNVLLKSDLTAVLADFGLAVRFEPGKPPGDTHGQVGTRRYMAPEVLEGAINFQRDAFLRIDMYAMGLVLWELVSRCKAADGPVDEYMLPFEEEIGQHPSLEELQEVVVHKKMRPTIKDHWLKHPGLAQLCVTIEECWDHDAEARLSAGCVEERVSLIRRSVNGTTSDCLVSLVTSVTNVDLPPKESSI

[14] = biological target: Serine/threonine-protein kinase PLK1 (Homo sapiens) (UniProt P53350); settings: Compound concentration 1000.0 nM
Sequence of Serine/threonine-protein kinase PLK1 (Homo sapiens) (P53350 whole entry): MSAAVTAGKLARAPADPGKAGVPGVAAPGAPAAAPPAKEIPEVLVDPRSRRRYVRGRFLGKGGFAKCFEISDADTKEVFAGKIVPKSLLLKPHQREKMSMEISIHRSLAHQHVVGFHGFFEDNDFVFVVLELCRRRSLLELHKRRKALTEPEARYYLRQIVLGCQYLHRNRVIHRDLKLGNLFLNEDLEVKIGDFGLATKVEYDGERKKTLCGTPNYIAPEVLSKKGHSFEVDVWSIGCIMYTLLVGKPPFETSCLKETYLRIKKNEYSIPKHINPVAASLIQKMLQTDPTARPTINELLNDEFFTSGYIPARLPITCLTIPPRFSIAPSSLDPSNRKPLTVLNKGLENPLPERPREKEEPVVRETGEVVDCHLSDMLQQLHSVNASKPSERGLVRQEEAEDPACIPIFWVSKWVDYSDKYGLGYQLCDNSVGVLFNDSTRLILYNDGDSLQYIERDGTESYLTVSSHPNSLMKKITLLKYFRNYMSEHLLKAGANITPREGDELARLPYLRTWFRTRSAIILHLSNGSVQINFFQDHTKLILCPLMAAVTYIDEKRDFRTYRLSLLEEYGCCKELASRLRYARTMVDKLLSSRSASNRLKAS

CCc1ccccc1C(=O)Nc1n[nH]c2c(C)c(F)c(C3C(C#N)=C(C)N(C)C(C)=C3C#N)cc12 [BAY-3827]
inactive: residual activity [1] 83% | residual activity [2] 82% | residual activity [3] 100% | residual activity [4] 85% | residual activity [5] 96% | residual activity [6] 83% | residual activity [7] 100% | residual activity [8] 51% | residual activity [9] 100% | residual activity [10] 100% | residual activity [11] 100% | inhibition [12] 2.66% | residual activity [13] 99% | residual activity [14] 100%

CC1=C(C#N)C(c2ccc3c(c2)c(NC(=O)c2ccccc2C)nn3C)C(C#N)=C(C)N1 [BAY-974]
inactive: residual activity [1] 98% | residual activity [2] 84% | residual activity [3] 99% | residual activity [4] 100% | residual activity [5] 79% | residual activity [6] 100% | residual activity [7] 88% | residual activity [8] 92% | residual activity [9] 93% | residual activity [10] 99% | residual activity [11] 73% | inhibition [12] 11.4% | residual activity [13] 100% | residual activity [14] 85%
